Measured values from patent US11339128B2 (Firmenich Incorporated, priority 2014, dated 2022).

Experiments:
T1R2/T1R3 taste receptor = biological target: T1, T1R2/T1R3 taste receptor (Homo sapiens, UniProt Q7RTX0+Q8TE23); test: Receptor-based assay: sweetener EC50 enhancement ratio with and without test compound; format: cell-based; conditions: for Sucrose Enhancement EC50 Ratio: sweetener sucrose; for Sucralose Enhancement EC50 Ratio: sweetener sucralose
T1 sequence (Q8TE23 20-839): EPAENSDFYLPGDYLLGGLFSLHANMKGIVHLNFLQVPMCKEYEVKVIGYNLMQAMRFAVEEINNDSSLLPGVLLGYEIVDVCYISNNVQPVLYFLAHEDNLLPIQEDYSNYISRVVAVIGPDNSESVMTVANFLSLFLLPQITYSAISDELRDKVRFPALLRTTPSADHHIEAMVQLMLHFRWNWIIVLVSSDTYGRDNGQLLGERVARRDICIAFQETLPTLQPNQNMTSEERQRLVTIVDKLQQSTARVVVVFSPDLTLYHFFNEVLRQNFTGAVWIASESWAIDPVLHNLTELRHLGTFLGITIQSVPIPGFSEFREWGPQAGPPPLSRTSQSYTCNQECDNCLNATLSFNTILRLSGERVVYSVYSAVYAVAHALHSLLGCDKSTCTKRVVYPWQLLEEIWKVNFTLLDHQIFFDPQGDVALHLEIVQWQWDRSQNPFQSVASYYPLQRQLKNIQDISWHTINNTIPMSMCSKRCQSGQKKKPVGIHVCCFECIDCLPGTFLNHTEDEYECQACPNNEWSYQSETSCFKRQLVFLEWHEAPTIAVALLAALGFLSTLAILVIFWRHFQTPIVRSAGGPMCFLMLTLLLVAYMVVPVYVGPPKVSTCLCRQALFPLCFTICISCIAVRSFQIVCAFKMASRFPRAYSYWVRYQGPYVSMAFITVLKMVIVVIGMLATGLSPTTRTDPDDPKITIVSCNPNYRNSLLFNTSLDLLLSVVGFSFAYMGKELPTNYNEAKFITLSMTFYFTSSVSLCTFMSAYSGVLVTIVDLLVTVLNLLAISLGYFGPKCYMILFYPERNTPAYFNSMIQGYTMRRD
T1 sequence (Q7RTX0 21-852): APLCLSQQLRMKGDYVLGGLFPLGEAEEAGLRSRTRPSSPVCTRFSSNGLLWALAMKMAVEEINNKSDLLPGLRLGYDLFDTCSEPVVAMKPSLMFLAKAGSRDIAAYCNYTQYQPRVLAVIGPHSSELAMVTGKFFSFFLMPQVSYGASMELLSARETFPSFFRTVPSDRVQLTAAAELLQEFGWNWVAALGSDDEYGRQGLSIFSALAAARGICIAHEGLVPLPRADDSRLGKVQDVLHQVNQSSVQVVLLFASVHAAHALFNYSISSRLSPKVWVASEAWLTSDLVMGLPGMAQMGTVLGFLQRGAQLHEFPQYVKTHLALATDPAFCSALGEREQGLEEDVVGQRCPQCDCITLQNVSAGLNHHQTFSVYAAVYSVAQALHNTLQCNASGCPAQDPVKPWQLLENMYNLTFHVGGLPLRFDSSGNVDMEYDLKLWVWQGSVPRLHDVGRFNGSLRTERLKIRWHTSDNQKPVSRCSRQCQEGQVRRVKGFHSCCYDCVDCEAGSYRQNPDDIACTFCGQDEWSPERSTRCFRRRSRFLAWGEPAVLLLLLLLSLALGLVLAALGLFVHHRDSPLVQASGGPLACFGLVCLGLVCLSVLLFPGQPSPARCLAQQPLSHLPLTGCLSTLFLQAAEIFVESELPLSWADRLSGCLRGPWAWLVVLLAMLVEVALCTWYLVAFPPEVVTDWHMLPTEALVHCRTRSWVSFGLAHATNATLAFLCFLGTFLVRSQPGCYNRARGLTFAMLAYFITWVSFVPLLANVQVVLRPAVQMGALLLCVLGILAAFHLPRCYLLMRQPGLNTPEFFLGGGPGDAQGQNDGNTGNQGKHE
How it was run: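 Sweetener (sucrose, sucralose, fructose) EC50 measured alone and with 1, 3, 10 or 50 μM test compound. Enhancement ratio = EC50 without/with compound; A = >1 to <10, B = 10–20, C = >20.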

[1] = Sensory paired-comparison sweetness test of sweetener (sucrose or high-fructose corn syrup) with test compound; format: in vivo, human; conditions: test compound 10 ppm or less with 6% sucrose, low sodium buffer pH 7.1; sucrose-alone concentration of equivalent perceived sweetness
Method: Test samples containing either a sweetener (sucrose or high-fructose corn syrup) alone or in combination with a test compound were presented in pairs to a group of panelist who were asked to determine which of the samples was sweeter. Subjects refrained from eating or drinking (except water) for at least 1 hour prior to the test. Subjects rinsed with water several times to clean the mouth. The samples within a paired comparison test were presented in a randomized, counterbalanced order. Panelists had up to a 1 minute delay between taste tests to clear the mouth of any tastes. Binomial probability tables were used to determine the probability of the correct number of responses occurring for each test at alpha-0.05.
Stock solutions of test compounds were prepared at 1000× final concentration with ethanol to ensure dispersion in solution. Test compound samples including sucrose were prepared by diluting the stock solutions in a low sodium buffer (0.952 g of KCl, 5.444 g of Na2HPO4, and 0.952 g of KH2PO4 in deionized ultrafiltered water) at pH 7.1 and containing sucrose. Test compound samples including high fructose corn syrup were prepared by diluting the stock solutions in the low sodium buffer at pH 2.8 (using citric acid to adjust the pH) and containing high fructose corn syrup. Control samples were balanced to 0.1% ethanol final.
In samples containing the test compound, the test compound was present at a concentration of 10 ppm or less and the concentration of sucrose was 6%. This table indicates the sucrose-alone concentration having a perceived sweetness intensity equivalent to the sweetness intensity of the combination of test compound and sucrose. An “A” value indicates an equivalent sucrose concentration greater than 6% and less than 10%. A “B” value indicates an equivalent sucrose concentration of 10% or greater. […]

In the case of `COC[C@H]1CC[C@H](Oc2cccc3nc(C)c(C(=O)O)c(N)c23)CC1` [Compound 101, 4-Amino-5-((trans-4-(methoxymethyl)cyclohexyl)oxy)-2-methylquinoline-3-carboxylic acid], the “Sucrose Enhancement EC50 Ratio” value (T1R2/T1R3 taste receptor; 1 μM test compound) is reported as “C (an enhancement ratio greater than 20)”, the “Sucrose Enhancement EC50 Ratio” value (T1R2/T1R3 taste receptor; 3 μM test compound) is reported as “C (an enhancement ratio greater than 20)” and the “Fructose Enhancement EC50 Ratio” value (T1R2/T1R3 taste receptor; 10 μM test compound, sweetener fructose) is reported as “A (an enhancement ratio of greater than 1 and less than 10)”. For the same compound, the “Sucralose Enhancement EC50 Ratio” value (T1R2/T1R3 taste receptor; 10 μM test compound) was “C (an enhancement ratio greater than 20)”, the “Sucrose Enhancement EC50 Ratio” value (T1R2/T1R3 taste receptor; 10 μM test compound) was “C (an enhancement ratio greater than 20)” and the “Equivalent Sucrose Conc.” value [1] was “A (an equivalent sucrose concentration greater than 6% and less than 10%)”.
In the case of `Cc1nc2cccc(O[C@H]3CC[C@H](NC(=O)COC(C)C)CC3)c2c(N)c1C(=O)O` [Compound 306], the “Sucrose Enhancement EC50 Ratio” value (T1R2/T1R3 taste receptor; 1 μM test compound) is reported as “B (an enhancement ratio from 10 to 20)”, the “Sucrose Enhancement EC50 Ratio” value (T1R2/T1R3 taste receptor; 3 μM test compound) is reported as “A (an enhancement ratio of greater than 1 and less than 10)” and the “Sucralose Enhancement EC50 Ratio” value (T1R2/T1R3 taste receptor; 10 μM test compound) is reported as “A (an enhancement ratio of greater than 1 and less than 10)”. For the same compound, the “Sucrose Enhancement EC50 Ratio” value (T1R2/T1R3 taste receptor; 10 μM test compound) was “A (an enhancement ratio of greater than 1 and less than 10)” and the “Equivalent Sucrose Conc.” value [1] was “B (an equivalent sucrose concentration of 10% or greater)”.
For `CCOCC(=O)N[C@H]1CC[C@H](Oc2cccc3nc(C)c(C(=O)O)c(N)c23)CC1` [Compound 300, 4-Amino-5-((trans-4-(2-ethoxyacetamido)cyclohexyl)oxy)-2-methylquinoline-3-carboxylic acid], the “Sucrose Enhancement EC50 Ratio” value (T1R2/T1R3 taste receptor; 1 μM test compound) was “B (an enhancement ratio from 10 to 20)”, the “Sucrose Enhancement EC50 Ratio” value (T1R2/T1R3 taste receptor; 3 μM test compound) was “C (an enhancement ratio greater than 20)” and the “Sucralose Enhancement EC50 Ratio” value (T1R2/T1R3 taste receptor; 10 μM test compound) was “B (an enhancement ratio from 10 to 20)”. For the same compound, the “Sucrose Enhancement EC50 Ratio” value (T1R2/T1R3 taste receptor; 10 μM test compound) was “C (an enhancement ratio greater than 20)”, the “Equivalent Sucrose Conc.” value [1] was “B (an equivalent sucrose concentration of 10% or greater)” and the melting point was 204 to 206 °C.
For `Cc1nc2cccc(O[C@H]3CC[C@H](NC(=O)COC4CCCCC4)CC3)c2c(N)c1C(=O)O` [Compound 311], the “Sucrose Enhancement EC50 Ratio” value (T1R2/T1R3 taste receptor; 1 μM test compound) was “B (an enhancement ratio from 10 to 20)”, the “Sucralose Enhancement EC50 Ratio” value (T1R2/T1R3 taste receptor; 3 μM test compound) was “A (an enhancement ratio of greater than 1 and less than 10)” and the “Sucrose Enhancement EC50 Ratio” value (T1R2/T1R3 taste receptor; 3 μM test compound) was “A (an enhancement ratio of greater than 1 and less than 10)”. For the same compound, the “Equivalent Sucrose Conc.” value [1] was “A (an equivalent sucrose concentration greater than 6% and less than 10%)”.
In the case of `CCCOCC(=O)N[C@H]1CC[C@H](Oc2cccc3nc(C)c(C(=O)O)c(N)c23)CC1` [Compound 305], the “Sucrose Enhancement EC50 Ratio” value (T1R2/T1R3 taste receptor; 1 μM test compound) is reported as “B (an enhancement ratio from 10 to 20)”, the “Sucrose Enhancement EC50 Ratio” value (T1R2/T1R3 taste receptor; 3 μM test compound) is reported as “A (an enhancement ratio of greater than 1 and less than 10)” and the “Sucralose Enhancement EC50 Ratio” value (T1R2/T1R3 taste receptor; 10 μM test compound) is reported as “C (an enhancement ratio greater than 20)”. For the same compound, the “Sucrose Enhancement EC50 Ratio” value (T1R2/T1R3 taste receptor; 10 μM test compound) was “A (an enhancement ratio of greater than 1 and less than 10)” and the “Equivalent Sucrose Conc.” value [1] was “B (an equivalent sucrose concentration of 10% or greater)”.
With `CCc1nc2cccc(O[C@H]3CC[C@H](C)CC3)c2c(N)c1C(=O)O` [Compound 201] the “Sucrose Enhancement EC50 Ratio” value (T1R2/T1R3 taste receptor; 1 μM test compound) was “A (an enhancement ratio of greater than 1 and less than 10)”, the “Sucrose Enhancement EC50 Ratio” value (T1R2/T1R3 taste receptor; 3 μM test compound) was “B (an enhancement ratio from 10 to 20)” and the “Equivalent Sucrose Conc.” value [1] was “A (an equivalent sucrose concentration greater than 6% and less than 10%)”.
In the case of `Cc1nc2cccc(O[C@H]3CC[C@H](C)CC3)c2c(N)c1C(=O)O` [Compound 100, 4-Amino-2-methyl-5-((trans-4-methylcyclohexyl)oxy)quinoline-3-carboxylic acid], the “Sucrose Enhancement EC50 Ratio” value (T1R2/T1R3 taste receptor; 1 μM test compound) is reported as “B (an enhancement ratio from 10 to 20)”, the “Sucrose Enhancement EC50 Ratio” value (T1R2/T1R3 taste receptor; 3 μM test compound) is reported as “C (an enhancement ratio greater than 20)” and the “Sucrose Enhancement EC50 Ratio” value (T1R2/T1R3 taste receptor; 10 μM test compound) is reported as “C (an enhancement ratio greater than 20)”. For the same compound, the “Equivalent Sucrose Conc.” value [1] was “B (an equivalent sucrose concentration of 10% or greater)” and the melting point was 225 to 228 °C.
